Common to all, as to format: cell-based
The test system of one test is BxPC3 cells. Description: In vitro cytotoxicity assay, CellTiter-Glo, 96 hours after treatment (mAb2 conjugates and free compounds). The following applies: BxPC3, target expressing, column also holds free compounds, read-out: BxPC3 Antibody IC50. The procedure: (§1) In vitro cytotoxicity assays were carried out using various antibodies, payloads (i.e., agent moieties), and amine donor units. For mAb2 (a chimeric IgG1 antibody), target expressing (A431, OVCAR3, BxPC3 and HT-29) or non-expressing (SW620) cells were seeded on white walled clear bottom plates at 2000 cells/well for 24 hours before treatment. […] Cell viability was determined by CellTiter-Glo® Luminescent Cell Viability Assay 96 (Promega, Madison Wis.) 96 hours after treatment. […] IC50 was calculated by Prism software.

Another test concerns SW620 cells. The test can be described thus: In vitro cytotoxicity assay, CellTiter-Glo, 96 hours after treatment, target non-expressing cells. The following applies: read-out: SW620 Antibody IC50. The procedure: as §1
The next test deals with A431 cells. The test can be described thus: In vitro cytotoxicity assay, CellTiter-Glo, 96 hours after treatment (mAb2 conjugates and free compounds). To be noted: Homo sapiens, A-431, 96 h, read-out: A431 Antibody IC50 (nM). How it is done:
as §1

Another test deals with HT-29 cells. The test is described as above. To be noted: Homo sapiens, HT-29, target expressing, column also holds free compounds, read-out: HT-29 Antibody IC50. How it is done:
as §1

Where two headings read alike, the source gives them in different places.

VC-PABC-MMAF [Sample 24]: the IC50 in the test on BxPC3 cells turned out to be 0.427 µM; with SW620 cells (values only for free compounds), 0.483 µM.

For the compound `CO[C@H]1/C=C\C=C(/C)C(=O)NC2=CC(=O)C(NCCCCNC(=O)[C@H](CCCCN)NC(C)=O)=C(C[C@@H](C)C[C@H](OC)[C@H](O)[C@@H](C)/C=C(\C)[C@@H]1OC(N)=O)C2=O` [Sample 26, AcLys-Putrescinyl-Geldanamycin], the IC50 in the test on A431 cells is greater than 1000 nM; in the test with SW620 cells (Homo sapiens, SW-620, values only for free compounds), greater than 1 µM.

On to `CC[C@H](C)[C@@H](C(CC(=O)N1CCCC1C(OC)[C@@H](C)C(=O)NC(Cc1ccccc1)c1nccs1)OC)N(C)C(=O)C(NC(=O)[C@H](C(C)C)N(C)C(=O)CNC(=O)C(C)CCCCN)C(C)C` (stereo partly drawn) [Sample 29, AcLysGly-MMAD], for which the half-maximal inhibitory concentration (IC50) worked out at 8.42 nM with A431 cells and 0.00514 µM in the test with HT-29 cells.

The record behind these values is US20130230543A1, “ENGINEERED POLYPEPTIDE CONJUGATES AND METHODS FOR MAKING THEREOF USING […]” (priority 2010, published 2013).
